These results are taken from patent US10689414B2 (Agios Pharmaceuticals, Inc., priority 2013, dated 2020).

This assay has as its system U87MG cells. Description: Cellular assay, inhibition of 2-HG production in U87MG cells. To be noted: Homo sapiens, U-87 MG, 48 h. The format is cell-based. How it is done:
Cells (HT1080 or U87MG) are grown in T125 flasks in DMEM containing 10% FBS, 1× penicillin/streptomycin and 500 ug/mL G418 (present in U87MG cells only). They are harvested by trypsin and seeded into 96 well white bottom plates at a density of 5000 cell/well in 100 ul/well in DMEM with 10% FBS. […] Cells are incubated overnight at 37° C. in 5% CO2. The next day test compounds are made up at 2× the final concentration and 100 ul are added to each cell well. The final concentration of DMSO is 0.2% and the DMSO control wells are plated in row G. The plates are then placed in the incubator for 48 hours. […] The cell plate is placed back in the incubator for another 24 hours. At 72 hours post compound addition, 10 mL/plate of Promega Cell Titer Glo reagent is thawed and mixed. The cell plate is removed from the incubator and allowed to equilibrate to room temperature. Then 100 ul of Promega Cell Titer Glo reagent is added to each well of media. The cell plate is then placed on an orbital shaker for 10 minutes and then allowed to sit at room temperature for 20 minutes. The plate is then read for luminescence with an integration time of 500 ms.
For orientation: IC50 means the point on the concentration scale where inhibition reaches its midpoint. Lower therefore signals greater potency. In the case of `N#Cc1ccnc(N2C(=O)CC[C@H]2C(=O)N(c2cccc(C3CC3)c2)[C@H](C(=O)NC2CC(F)(F)C2)c2ccccc2Cl)n1` [Compound 182, (S)—N—((S)-1-(2-Chlorophenyl)-2-((3,3-difluorocyclobutyl)amino)-2-oxoethyl)-1-(4-cyanopyri-midin-2-yl)-N-(3-cyclopropylphenyl)-5-oxopyrrolidine-2-carboxamide], the IC50 was < 0.1 µM.

On to `O=C(NC1CC(F)(F)C1)[C@H](c1ccccc1Cl)N(C(=O)[C@@H]1CCC(=O)N1c1ccc(F)cn1)c1cccc(F)c1` [Compound 29], for which the IC50 is < 0.1 µM.

Take `N#Cc1ccnc(N2C(=O)CNC[C@H]2C(=O)N(c2cc(F)cc(F)c2)[C@H](C(=O)NC2CC(F)(F)C2)c2ccccc2Cl)c1` [Compound 100, (S)—N—((S)-1-(2-Chlorophenyl)-2-((3,3-difluorocyclobutyl)amino)-2-oxoethyl)-1-(4-cyanopyridin-2-yl)-N-(3,5-difluorophenyl)-6-oxopiperazine-2-carboxamide]: the IC50 is < 0.1 µM.

`N#Cc1ccnc(N2C(=O)CC[C@H]2C(=O)N(c2cccc(F)c2)[C@H](C(=O)NC2CC(F)(F)C2)c2ccccc2Cl)c1F` [Compound 82, (S)—N—((S)-1-(2-Chlorophenyl)-2-((3,3-difluorocyclobutyl)amino)-2-oxoethyl)-1-(4-cyano-3-fluoropyridin-2-yl)-N-(3-fluorophenyl)-5-oxopyrrolidine-2-carboxamide]: the IC50 was < 0.1 µM.

As for `N#Cc1ccc(N2C(=O)CC[C@H]2C(=O)N(c2cccc(F)c2)[C@H](C(=O)NC2CC(F)(F)C2)c2ccccc2Cl)nc1` [Compound 47], the half-inhibitory concentration (IC50) fell in the range of 0.1 to 0.5 µM.

As to `N#Cc1ccnc(N2C(=O)CCC[C@H]2C(=O)N(c2cccc(F)c2)[C@H](C(=O)NC2CCC(F)(F)CC2)c2ccccc2Cl)c1` [Compound 75, (S)—N—((S)-1-(2-Chlorophenyl)-2-((4,4-difluorocyclohexyl)amino)-2-oxoethyl)-1-(4-cyano-pyridin-2-yl)-N-(3-fluorophenyl)-6-oxopiperidine-2-carboxamide], the IC50 was < 0.1 µM.

For `CC(C)(C)OC(=O)N1CC(=O)N(c2nccc(C#N)n2)[C@H](C(=O)N(c2cc(F)cc(F)c2)[C@H](C(=O)NC2CCC(F)(F)CC2)c2ccccc2Cl)C1` [Compound 93, (S)-tert-Butyl 3-(((S)-1-(2-chlorophenyl)-2-((4,4-difluorocyclohexyl)amino)-2-oxoethyl)(3,5-difluorophenyl)carbamoyl)-4-(4-cyanopyrimidin-2-yl)-5-oxopiperazine-1-carboxylate], the IC50 was < 0.1 µM.

`N#Cc1ccnc(N2C(=O)CC[C@H]2C(=O)N(c2cccc(CO)c2)[C@H](C(=O)NC2CC(F)(F)C2)c2ccccc2Cl)c1` [Compound 131, (S)—N—((S)-1-(2-Chlorophenyl)-2-(3,3-difluorocyclobutylamino)-2-oxoethyl)-1-(4-cyanopyridin-2-yl)-N-(3-(hydroxymethyl)phenyl)-5-oxopyrrolidine-2-carboxamide]: the concentration for half-maximal inhibition (IC50) was < 0.1 µM.

In turn, `O=C(NC1CC(F)(F)C1)C(c1c(Cl)cccc1Cl)N(C(=O)[C@@H]1CCC(=O)N1c1ncccn1)c1cccc(F)c1` (stereo partly shown) [Compound 51] showed an IC50 of 0.1 to 0.5 µM.

Consider `N#Cc1ccnc(N2C(=O)CC[C@H]2C(=O)N(c2cccc(F)c2)[C@H](C(=O)NC2CC(F)(F)C2)c2ccccc2)c1` [Compound 138, (S)-1-(4-Cyanopyridin-2-yl)-N—((S)-2-((3,3-difluorocyclobutyl)amino)-2-oxo-1-phenylethyl)-N-(3-fluorophenyl)-5-oxopyrrolidine-2-carboxamide], for which the IC50 is < 0.1 µM.

As to `N#Cc1ccnc(N2C(=O)[C@H](O)C[C@H]2C(=O)N(c2cc(F)cc(F)c2)[C@H](C(=O)NC2CCC(F)(F)CC2)c2ccccc2Cl)n1` [Compound 127, (2S,4R)—N—((S)-1-(2-Chlorophenyl)-2-(4,4-difluorocyclohexylamino)-2-oxoethyl)-1-(4-cyanopyrimidin-2-yl)-N-(3,5-difluorophenyl)-4-hydroxy-5-oxopyrrolidine-2-carboxamide], the IC50 is < 0.1 µM.

In the case of `N#Cc1ccnc(N2C(=O)CC[C@H]2C(=O)N(c2cccc3[nH]ncc23)C(C(=O)NC2CC(F)(F)C2)c2ccccc2Cl)c1` (stereo partly drawn) [Compound 152, (2S)—N-(1-(2-Chlorophenyl)-2-((3,3-difluorocyclobutyl)amino)-2-oxoethyl)-1-(4-cyanopyridin-2-yl)-N-(1H-indazol-4-yl)-5-oxopyrrolidine-2-carboxamide], the IC50 is < 0.1 µM.

Turning to `N#Cc1ccnc(N2C(=O)CN(C3CC3)C[C@H]2C(=O)N(c2cc(F)cc(F)c2)[C@H](C(=O)NC2CC(F)(F)C2)c2ccccc2Cl)c1` [Compound 106, (S)—N—((S)-1-(2-chlorophenyl)-2-((3,3-difluorocyclobutyl)amino)-2-oxoethyl)-1-(4-cyanopyridin-2-yl)-4-cyclopropyl-N-(3,5-difluorophenyl)-6-oxopiperazine-2-carboxamide], the IC50 is < 0.1 µM.

As for `CS(=O)(=O)c1cccc(N(C(=O)[C@@H]2CCC(=O)N2c2nccc(C#N)n2)C(C(=O)NC2CC(F)(F)C2)c2ccccc2Cl)c1` (mixture of isomers) [Compound 102, (2S)—N-(1-(2-Chlorophenyl)-2-((3,3-difluorocyclobutyl)amino)-2-oxoethyl)-1-(4-cyanopyrimidin-2-yl)-N-(3-(methylsulfonyl)phenyl)-5-oxopyrrolidine-2-carboxamide], the IC50 was in the range of 0.1 to 0.5 µM.

For `O=C(NC1CC(F)(F)C1)[C@H](c1ccccc1Cl)N(C(=O)[C@@H]1CCC(=O)N1c1cc(Cl)ccn1)c1cccc(F)c1` [Compound 33], the half-maximal inhibitory concentration (IC50) is 0.1 to 0.5 µM.

As to `N#Cc1ccnc(N2C(=O)OCC[C@H]2C(=O)N(c2cncc(F)c2)[C@H](C(=O)NC2CCC(F)(F)CC2)c2ccccc2Cl)c1` [Compound 137, (S)—N—((S)-1-(2-Chlorophenyl)-2-((4,4-difluorocyclohexyl)amino)-2-oxoethyl)-3-(4-cyano-pyridin-2-yl)-N-(5-fluoropyridin-3-yl)-2-oxo-1,3-oxazinane-4-carboxamide], the IC50 was < 0.1 µM.

As to `CNS(=O)(=O)c1cccc(N(C(=O)[C@@H]2CCC(=O)N2c2cc(C#N)ccn2)[C@H](C(=O)NC2CC(F)(F)C2)c2ccccc2Cl)c1` [Compound 157], the IC50 was < 0.1 µM.

With `N#Cc1ccnc(N2C(=O)CC[C@H]2C(=O)N(c2cccc(F)c2)[C@H](C(=O)NC2CCC(F)(F)CC2)c2ccccc2Cl)n1` [Compound 85, (S)—N—((S)-1-(2-Chlorophenyl)-2-((4,4-difluorocyclohexyl)amino)-2-oxoethyl)-1-(4-cyanopyrimidin-2-yl)-N-(3-fluorophenyl)-5-oxopyrrolidine-2-carboxamide], the concentration for half-maximal inhibition (IC50) was < 0.1 µM.

With `CN1C[C@@H](C(=O)N(c2cccc(F)c2)C(C(=O)NC2CC(F)(F)C2)c2ccccc2Cl)N(c2cc(C#N)ccn2)C1=O` (stereo partly drawn) [Compound 79, (4S)—N-(1-(2-chlorophenyl)-2-((3,3-difluorocyclobutyl)amino)-2-oxoethyl)-3-(4-cyanopyridin-2-yl)-N-(3-fluorophenyl)-1-methyl-2-oxoimidazolidine-4-carboxamide], the IC50 is < 0.1 µM.

Take `C[C@]1(O)C[C@@H](C(=O)N(c2cccc(F)c2)[C@H](C(=O)NC2CC(F)(F)C2)c2ccccc2Cl)N(c2cc(C#N)ccn2)C1=O` (stereo in doubt) [Compound 183, (2S)—N—((R)-1-(2-chlorophenyl)-2-(3,3-difluorocyclobutylamino)-2-oxoethyl)-1-(4-cyanopyridin-2-yl)-N-(3-fluorophenyl)-4-hydroxy-4-methyl-5-oxopyrrolidine-2-carboxamide]: the IC50 is < 0.1 µM.

Consider `O=C(NC1CC(F)(F)C1)[C@H](c1ccccc1Cl)N(C(=O)[C@@H]1CCC(=O)N1c1cnccn1)c1cccc(F)c1` [Compound 18], for which the IC50 is < 0.1 µM.

For the molecule `N#Cc1ccnc(N2C(=O)N(CCO)C[C@H]2C(=O)N(c2cccc(F)c2)C(C(=O)NC2CC(F)(F)C2)c2ccccc2Cl)c1` (stereo partly drawn) [Compound 112, (4S)—N-(1-(2-Chlorophenyl)-2-(3,3-difluorocyclobutyl-amino)-2-oxoethyl)-3-(4-cyanopyridin-2-yl)-N-(3-fluorophenyl)-1-(2-hydroxyeth-yl)-2-oxoimidazolidine-4-carboxamide], the IC50 was < 0.1 µM.

On to `N#Cc1ccnc(N2C(=O)CC[C@H]2C(=O)N(c2cccc(OC(F)(F)F)c2)C(C(=O)NC2CC(F)(F)C2)c2ccccc2Cl)n1` (stereo partly drawn) [Compound 180, (2S)—N-(1-(2-Chlorophenyl)-2-((3,3-difluorocyclobutyl)amino)-2-oxoethyl)-1-(4-cyanopyrimidin-2-yl)-5-oxo-N-(3-(trifluoromethoxy)phenyl)pyrrolidine-2-carboxamide], for which the IC50 is < 0.1 µM.

Consider `N#Cc1ccnc(N2C(=O)[C@@H](O)C[C@H]2C(=O)N(c2cc(F)cc(F)c2)[C@H](C(=O)NC2CCC(F)(F)CC2)c2ccccc2Cl)c1` [Compound 174, (2S,4S)—N—((S)-1-(2-Chlorophenyl)-2-((4,4-difluorocyclohexyl)amino)-2-oxoethyl)-1-(4-cyanopyridin-2-yl)-N-(3,5-difluorophenyl)-4-hydroxy-5-oxopyrrolidine-2-carboxamide], for which the IC50 is < 0.1 µM.

In the case of `O=C(NC1CC(F)(F)C1)C(c1ccccc1Cl)N(C(=O)[C@@H]1CCCC(=O)N1c1ncccn1)c1cccc(F)c1` (stereo in doubt) [Compound 20, (S)—N—((R)-1-(2-Chloro-phenyl)-2-((3,3-difluorocyclobutyl)amino)-2-oxoethyl)-N-(3-fluoro-phenyl)-6-oxo-1-(pyrimidin-2-yl)piperidine-2-carboxamide], the IC50 was 0.1 to 0.5 µM.
